Assay results reported in PubChem BioAssay AID248 (DTP/NCI, 2004).
Values joined by “and” are separate entries in the source; they are usually repeats but may differ in a detail not shown here. Identical values can stand only once. Toxic doses and inconclusive results are not listed.

System: L1210 leukemia ip in BDF1 mice, survival T/C
Test: NCI In Vivo Anticancer Drug Screen. Data for tumor model L1210 Leukemia (intraperitoneal) in B6D2F1 (BDF1) mice
Conditions: endpoint: mean survival time, higher = longer survival
Method in brief: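 Antitumor effect is assessed in tumor-bearing animals. Survival in the compound arm is compared with a vehicle-dosed control arm and expressed as their quotient.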

[1] = dose: 100.0 mg/kg/injection, schedule: Q01DX009 (ip), vehicle: saline with Tween-80
[2] = dose: 100.0 mg/kg/injection, schedule: Q04DX003 (ip), vehicle: saline with Tween-80
[3] = dose: 200.0 mg/kg/injection, schedule: Q01DX009 (ip), vehicle: saline with Tween-80
[4] = dose: 200.0 mg/kg/injection, schedule: Q04DX003 (ip), vehicle: saline with Tween-80
[5] = dose: 400.0 mg/kg/injection, schedule: Q01DX009 (ip), vehicle: saline with Tween-80
[6] = dose: 100.0 mg/kg/injection, schedule: Q04DX003 (ip), vehicle: saline
[7] = dose: 200.0 mg/kg/injection, schedule: Q04DX003 (ip), vehicle: saline
[8] = dose: 400.0 mg/kg/injection, schedule: Q04DX003 (ip), vehicle: saline
[9] = dose: 200.0 mg/kg/injection, schedule: Q01DX001 (ip), vehicle: saline
[10] = dose: 100.0 mg/kg/injection, schedule: Q01DX001 (ip), vehicle: saline
[11] = dose: 400.0 mg/kg/injection, schedule: Q01DX001 (ip), vehicle: saline

O=C1O[B-](c2ccccc2)(c2ccccc2)[NH2+]C1Cc1ccc(O)cc1 (centres undefined)
T/C (dose: 75.0 mg/kg/injection, schedule: Q01DX001 (ip), vehicle: acetone): 91 % of control | T/C (dose: 150.0 mg/kg/injection, schedule: Q01DX001 (ip), vehicle: acetone): 96 % of control | T/C (dose: 300.0 mg/kg/injection, schedule: Q01DX001 (ip), vehicle: acetone): 95 % of control

Cc1ccc(NS(=O)(=O)c2ccc([N+](=O)[O-])cc2)c(C)c1
T/C [1]: 98 % of control | T/C [2]: 88 % of control | T/C [3]: 101 % of control | T/C [4]: 89 % of control | T/C [5]: 98 % of control | T/C (dose: 400.0 mg/kg/injection, schedule: Q04DX003 (ip), vehicle: saline with Tween-80): 86 % of control

CN(C)c1ccc([N+](=O)[O-])cc1[N+](=O)[O-]
T/C (dose: 100.0 mg/kg/injection, schedule: Q01DX001 (ip), vehicle: other): 111 % of control | T/C (dose: 200.0 mg/kg/injection, schedule: Q01DX001 (ip), vehicle: other): 101 % of control

O=C(CC(c1ccccc1)N1CCN(c2ccccc2)CC1)c1ccccc1 (centres undefined)
T/C (dose: 100.0 mg/kg/injection, schedule: Q04DX003 (ip), vehicle: Klucel (hydroxypropylcellulose) (HPC)): 102 % of control | T/C (dose: 200.0 mg/kg/injection, schedule: Q04DX003 (ip), vehicle: Klucel (hydroxypropylcellulose) (HPC)): 97 % of control | T/C (dose: 400.0 mg/kg/injection, schedule: Q04DX003 (ip), vehicle: Klucel (hydroxypropylcellulose) (HPC)): 94 % of control

C=CCc1cc(OC)c2c(c1OC)C(=O)c1cccc(OC)c1C2=O
T/C [2]: 97 % of control | T/C [4]: 105 % of control

CCCCCCCCC(CO)CCCCCC (centres undefined)
T/C [6]: 100 % of control | T/C [7]: 106 % of control | T/C [8]: 92 % of control

c1ccc2cc(CCSSCCc3ccc4ccccc4c3)ccc2c1
T/C [9]: 87 % of control

CN(C)CCNC1c2ccccc2CCc2ccccc21
T/C (dose: 18.75 mg/kg/injection, schedule: Q04DX003 (ip), vehicle: saline): 98 % of control | T/C (dose: 37.5 mg/kg/injection, schedule: Q04DX003 (ip), vehicle: saline): 104 % of control | T/C (dose: 75.0 mg/kg/injection, schedule: Q04DX003 (ip), vehicle: saline): 101 % of control

COCC(O)C(OC)C(OC)C(N)C=O (centres undefined)
T/C [10]: 101 % of control | T/C [9]: 101 % of control | T/C [11]: 107 % of control

CCCCN(CCCC)CC(C)O (centres undefined)
T/C (dose: 25.0 mg/kg/injection, schedule: Q01DX009 (ip), vehicle: saline with Tween-80): 101 % of control | T/C (dose: 25.0 mg/kg/injection, schedule: Q04DX003 (ip), vehicle: saline with Tween-80): 104 % of control | T/C (dose: 50.0 mg/kg/injection, schedule: Q01DX009 (ip), vehicle: saline with Tween-80): 95 % of control | T/C (dose: 50.0 mg/kg/injection, schedule: Q04DX003 (ip), vehicle: saline with Tween-80): 96 % of control | T/C [1]: 104 % of control | T/C [2]: 98 % of control and 101 % of control

O=C1OC(c2ccc([N+](=O)[O-])cc2)=N/C1=C\c1ccc(Cl)cc1
T/C (dose: 100.0 mg/kg/injection, schedule: Q01DX009 (ip), vehicle: saline): 94 % of control | T/C (dose: 100.0 mg/kg/injection, schedule: Q04DX002 (ip), vehicle: saline): 89 % of control | T/C (dose: 200.0 mg/kg/injection, schedule: Q01DX009 (ip), vehicle: saline): 91 % of control | T/C (dose: 200.0 mg/kg/injection, schedule: Q04DX002 (ip), vehicle: saline): 92 % of control | T/C (dose: 400.0 mg/kg/injection, schedule: Q01DX009 (ip), vehicle: saline): 91 % of control | T/C (dose: 400.0 mg/kg/injection, schedule: Q04DX002 (ip), vehicle: saline): 92 % of control

COc1ccc(C(=O)CSc2cc[o+]cc2)cc1
T/C [10]: 95 % of control | T/C [1]: 94 % of control | T/C [6]: 95 % of control | T/C [9]: 97 % of control | T/C [3]: 104 % of control | T/C [7]: 92 % of control | T/C [11]: 106 % of control | T/C [5]: 90 % of control | T/C [8]: 97 % of control

COc1cccc(/C=N/Nc2nnc(N/N=C/c3cccc(OC)c3)c3ccccc23)c1
T/C (dose: 50.0 mg/kg/injection, schedule: Q01DX001 (ip), vehicle: carboxymethylcellulose (CMC)): 101 % of control | T/C (dose: 100.0 mg/kg/injection, schedule: Q01DX001 (ip), vehicle: carboxymethylcellulose (CMC)): 107 % of control | T/C (dose: 200.0 mg/kg/injection, schedule: Q01DX001 (ip), vehicle: carboxymethylcellulose (CMC)): 103 % of control

Cc1cc2c(cc1C)C(=O)C(=O)N2
T/C (dose: 50.0 mg/kg/injection, schedule: Q01DX001 (ip), vehicle: saline): 98 % of control | T/C [10]: 107 % of control | T/C [9]: 104 % of control | T/C [11]: 98 % of control

Nc1ccc(C(=O)N/N=C/c2ccccc2[N+](=O)[O-])cc1
T/C (dose: 12.5 mg/kg/injection, schedule: Q01DX009 (ip), vehicle: other): 91 % of control | T/C (dose: 25.0 mg/kg/injection, schedule: Q01DX009 (ip), vehicle: other): 93 % of control

CCOC(=O)C1CCC(NC(=O)N(CCCl)N=O)CC1 (centres undefined)
T/C (dose: 3.0 mg/kg/injection, schedule: Q01DX001 (ip), vehicle: other): 109 % of control | T/C (dose: 12.0 mg/kg/injection, schedule: Q01DX001 (ip), vehicle: other): 189 % of control | T/C (dose: 16.0 mg/kg/injection, schedule: Q01DX001 (ip), vehicle: other): 281 % of control | T/C (dose: 20.0 mg/kg/injection, schedule: Q01DX001 (ip), vehicle: other): 298 % of control | T/C (dose: 21.0 mg/kg/injection, schedule: Q01DX001 (ip), vehicle: other): 315 % of control | T/C (dose: 24.0 mg/kg/injection, schedule: Q01DX001 (ip), vehicle: other): 267 % of control | T/C (dose: 30.0 mg/kg/injection, schedule: Q01DX001 (ip), vehicle: other): 283 % of control | T/C (dose: 31.0 mg/kg/injection, schedule: Q01DX001 (ip), vehicle: other): 317 % of control and 337 % of control | T/C (dose: 44.0 mg/kg/injection, schedule: Q01DX001 (ip), vehicle: other): 270 % of control | T/C (dose: 47.0 mg/kg/injection, schedule: Q01DX001 (ip), vehicle: other): 252 % of control | T/C (dose: 62.0 mg/kg/injection, schedule: Q01DX001 (ip), vehicle: other): 259 % of control | T/C (dose: 70.0 mg/kg/injection, schedule: Q01DX001 (ip), vehicle: other): 159 % of control

CC(=O)Nc1ccc(C=O)cc1
T/C [10]: 100 % of control | T/C [9]: 97 % of control | T/C [11]: 116 % of control

CCCCCCCCCCCCNC(=O)c1ccc[n+](C)c1
T/C (dose: 6.25 mg/kg/injection, schedule: Q01DX009 (ip), vehicle: acetone): 95 % of control | T/C (dose: 6.25 mg/kg/injection, schedule: Q04DX003 (ip), vehicle: saline): 91 % of control | T/C (dose: 12.5 mg/kg/injection, schedule: Q01DX001 (ip), vehicle: saline): 105 % of control | T/C (dose: 12.5 mg/kg/injection, schedule: Q01DX009 (ip), vehicle: acetone): 98 % of control | T/C (dose: 12.5 mg/kg/injection, schedule: Q04DX003 (ip), vehicle: saline): 92 % of control and 103 % of control | T/C (dose: 25.0 mg/kg/injection, schedule: Q01DX001 (ip), vehicle: saline): 104 % of control | T/C (dose: 25.0 mg/kg/injection, schedule: Q01DX009 (ip), vehicle: acetone): 95 % of control | T/C (dose: 25.0 mg/kg/injection, schedule: Q04DX003 (ip), vehicle: saline): 94 % of control and 91 % of control | T/C (dose: 50.0 mg/kg/injection, schedule: Q04DX003 (ip), vehicle: saline): 96 % of control

C/C(=N/N(C)C)c1ccc(C#N)cc1
T/C (dose: 100.0 mg/kg/injection, schedule: Q01DX001 (ip), vehicle: Klucel (hydroxypropylcellulose) (HPC)): 112 % of control | T/C (dose: 200.0 mg/kg/injection, schedule: Q01DX001 (ip), vehicle: Klucel (hydroxypropylcellulose) (HPC)): 113 % of control | T/C (dose: 400.0 mg/kg/injection, schedule: Q01DX001 (ip), vehicle: Klucel (hydroxypropylcellulose) (HPC)): 105 % of control

O=C(O)c1cccc([N+](=O)[O-])c1Br
T/C (dose: 100.0 mg/kg/injection, schedule: Q01DX009 (ip), vehicle: Klucel (hydroxypropylcellulose) (HPC)): 94 % of control | T/C (dose: 200.0 mg/kg/injection, schedule: Q01DX009 (ip), vehicle: Klucel (hydroxypropylcellulose) (HPC)): 100 % of control | T/C (dose: 400.0 mg/kg/injection, schedule: Q01DX009 (ip), vehicle: Klucel (hydroxypropylcellulose) (HPC)): 91 % of control

CC1Cc2ccccc2C2=C3CC=CCC3C3C(=O)OC(=O)C3C21 (centres undefined)
T/C (dose: 75.0 mg/kg/injection, schedule: Q01DX001 (ip), vehicle: carboxymethylcellulose (CMC)): 89 % of control | T/C (dose: 150.0 mg/kg/injection, schedule: Q01DX001 (ip), vehicle: carboxymethylcellulose (CMC)): 94 % of control | T/C (dose: 300.0 mg/kg/injection, schedule: Q01DX001 (ip), vehicle: carboxymethylcellulose (CMC)): 90 % of control
